pIC50, pKi: −log10 of the molar value.
How the values were obtained:
Thymidylate synthase = biological target: T1, Thymidylate synthase (Lactobacillus casei, UniProt P00469); experiment: Evaluated for inhibition of thymidylate synthase (TS) from Lactobacillus casei; parameters: species or system Lacticaseibacillus casei
T1 sequence (P00469 whole entry): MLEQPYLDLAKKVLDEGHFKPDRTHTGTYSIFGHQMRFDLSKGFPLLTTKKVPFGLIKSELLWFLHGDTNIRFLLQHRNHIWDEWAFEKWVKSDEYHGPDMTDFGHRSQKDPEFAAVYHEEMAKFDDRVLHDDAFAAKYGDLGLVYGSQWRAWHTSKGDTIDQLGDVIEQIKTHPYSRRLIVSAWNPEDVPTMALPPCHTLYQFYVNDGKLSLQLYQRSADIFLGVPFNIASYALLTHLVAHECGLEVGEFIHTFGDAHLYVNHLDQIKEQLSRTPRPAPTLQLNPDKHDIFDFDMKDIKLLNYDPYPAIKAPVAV

[1] = biological target: Trifunctional purine biosynthetic protein adenosine-3 (Homo sapiens) (UniProt P22102); experiment: Inhibition of GAR transformylase from mammalian Manca
Chain of Trifunctional purine biosynthetic protein adenosine-3 (Homo sapiens) (P22102 whole entry, looked up): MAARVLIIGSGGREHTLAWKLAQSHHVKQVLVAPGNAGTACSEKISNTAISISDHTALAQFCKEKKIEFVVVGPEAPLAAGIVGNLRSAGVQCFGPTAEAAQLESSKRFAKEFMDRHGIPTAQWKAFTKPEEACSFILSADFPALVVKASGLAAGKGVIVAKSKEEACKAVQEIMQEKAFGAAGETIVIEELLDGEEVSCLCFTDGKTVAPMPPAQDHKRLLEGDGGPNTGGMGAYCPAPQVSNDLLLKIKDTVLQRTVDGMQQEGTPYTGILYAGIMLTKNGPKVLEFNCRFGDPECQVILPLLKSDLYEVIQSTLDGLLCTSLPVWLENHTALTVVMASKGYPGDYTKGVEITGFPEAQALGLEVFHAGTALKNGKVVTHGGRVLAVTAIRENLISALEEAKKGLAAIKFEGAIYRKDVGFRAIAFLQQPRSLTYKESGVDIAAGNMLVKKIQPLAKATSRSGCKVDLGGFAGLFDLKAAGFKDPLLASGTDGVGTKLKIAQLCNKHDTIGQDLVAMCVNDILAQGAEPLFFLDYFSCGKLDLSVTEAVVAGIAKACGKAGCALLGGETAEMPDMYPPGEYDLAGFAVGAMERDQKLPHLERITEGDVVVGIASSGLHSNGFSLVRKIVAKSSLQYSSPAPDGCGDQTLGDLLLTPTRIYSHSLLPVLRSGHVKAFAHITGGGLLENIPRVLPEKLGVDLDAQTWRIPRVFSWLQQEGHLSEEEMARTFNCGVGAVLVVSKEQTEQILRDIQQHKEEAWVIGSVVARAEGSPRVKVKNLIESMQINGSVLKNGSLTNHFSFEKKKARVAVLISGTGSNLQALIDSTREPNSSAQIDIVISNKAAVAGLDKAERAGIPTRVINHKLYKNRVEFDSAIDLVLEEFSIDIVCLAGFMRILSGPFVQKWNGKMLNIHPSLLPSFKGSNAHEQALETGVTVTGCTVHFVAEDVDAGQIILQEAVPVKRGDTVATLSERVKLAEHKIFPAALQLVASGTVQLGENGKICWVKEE

L1210 [2] = experiment: Evaluated for cell growth inhibition of L1210 cells in cultures; type: functional, cell-based; conditions: Mus musculus
L1210 [3] = experiment: Influx characteristics toward L1210 cells was evaluated; type: functional, cell-based; conditions: Mus musculus
Dihydrofolate reductase [4] = biological target: Dihydrofolate reductase (Lactobacillus casei, UniProt P00381); experiment: Evaluated for inhibition of dihydrofolate reductase (DHFR) from Lactobacillus casei; parameters: species or system Lacticaseibacillus casei
Chain of Dihydrofolate reductase (Lactobacillus casei, UniProt P00381) (P00381 whole entry): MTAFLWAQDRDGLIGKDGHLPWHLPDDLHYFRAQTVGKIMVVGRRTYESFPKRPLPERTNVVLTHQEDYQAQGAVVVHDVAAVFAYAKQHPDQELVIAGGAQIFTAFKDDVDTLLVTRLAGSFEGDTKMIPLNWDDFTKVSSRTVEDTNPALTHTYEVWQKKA

Dihydrofolate reductase [5] = biological target: T2, Dihydrofolate reductase (Mus musculus, UniProt P00375); experiment: Evaluated for inhibition of dihydrofolate reductase (DHFR) isolated from L1210 cells; type: cell-based
T2 sequence (P00375 whole entry): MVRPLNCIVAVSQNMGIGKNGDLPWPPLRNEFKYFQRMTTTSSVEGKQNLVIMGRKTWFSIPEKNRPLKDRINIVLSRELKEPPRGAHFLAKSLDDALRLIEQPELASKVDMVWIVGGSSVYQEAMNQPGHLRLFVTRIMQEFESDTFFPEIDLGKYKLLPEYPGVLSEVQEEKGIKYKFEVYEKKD

[6] = biological target: T3, Trifunctional purine biosynthetic protein adenosine-3 (Mus musculus, UniProt Q64737); experiment: Inhibition of GAR transformylase from mammalian L1210 cells; type: cell-based
T3 sequence (Q64737 whole entry): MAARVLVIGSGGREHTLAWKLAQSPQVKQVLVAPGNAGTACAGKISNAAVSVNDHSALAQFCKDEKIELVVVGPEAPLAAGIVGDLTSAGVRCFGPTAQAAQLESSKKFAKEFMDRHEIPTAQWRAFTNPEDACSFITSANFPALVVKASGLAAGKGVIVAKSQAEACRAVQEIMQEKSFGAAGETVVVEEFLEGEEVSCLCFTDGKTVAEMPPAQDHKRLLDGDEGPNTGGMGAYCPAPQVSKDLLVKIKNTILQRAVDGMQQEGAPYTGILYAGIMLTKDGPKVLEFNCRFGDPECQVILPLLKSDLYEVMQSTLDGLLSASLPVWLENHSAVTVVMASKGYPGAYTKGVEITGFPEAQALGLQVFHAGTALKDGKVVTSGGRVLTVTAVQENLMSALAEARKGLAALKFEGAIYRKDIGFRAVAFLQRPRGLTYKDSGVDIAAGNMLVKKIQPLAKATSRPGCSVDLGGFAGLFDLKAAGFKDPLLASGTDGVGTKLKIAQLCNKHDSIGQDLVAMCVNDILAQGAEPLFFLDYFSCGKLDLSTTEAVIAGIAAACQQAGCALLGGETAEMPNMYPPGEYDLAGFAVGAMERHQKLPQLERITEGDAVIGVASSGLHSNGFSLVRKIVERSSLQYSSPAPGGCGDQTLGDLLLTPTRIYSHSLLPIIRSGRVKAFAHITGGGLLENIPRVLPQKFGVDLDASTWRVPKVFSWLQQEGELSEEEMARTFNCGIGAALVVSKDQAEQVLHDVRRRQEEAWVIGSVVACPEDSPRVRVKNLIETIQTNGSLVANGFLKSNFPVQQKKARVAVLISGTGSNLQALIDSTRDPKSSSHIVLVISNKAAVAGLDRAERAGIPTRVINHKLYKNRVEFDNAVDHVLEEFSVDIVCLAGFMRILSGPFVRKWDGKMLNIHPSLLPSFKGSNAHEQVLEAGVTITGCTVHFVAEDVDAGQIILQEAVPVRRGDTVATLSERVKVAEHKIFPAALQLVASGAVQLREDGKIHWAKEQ

L1210 [7] = experiment: Efflux characteristics in the L1210 cells was evaluated; type: functional, Mus musculus

With `CC1c2c(O)nc(N)nc2NCC1CCc1ccc(C(=O)NC(CCC(=O)O)C(=O)O)cc1` (racemic) the pIC50 (Thymidylate synthase) was < 4.00, the pIC50 [1] was 4.85 and the pIC50 (L1210 [2]) was 6.31. For the same molecule, the Km (L1210 [3]) was 1.62 µM, the pIC50 (Dihydrofolate reductase [4]) was < 4.00 and the pKi (Dihydrofolate reductase [5]) was < 9.00. It also gave a pIC50 [6] of 4.10.

With `CCC1c2c(O)nc(N)nc2NCC1CCc1ccc(C(=O)NC(CCC(=O)O)C(=O)O)cc1` (racemic) the pIC50 (Thymidylate synthase) was < 4.00, the pIC50 [1] was 6.30 and the pIC50 (L1210 [2]) was 7.24. The Km (L1210 [3]) was 2.48 µM, the pIC50 (Dihydrofolate reductase [4]) was 4.72 and the pKi (Dihydrofolate reductase [5]) was < 9.00. The pIC50 [6] was 6.30.

`Cc1c(CCc2ccc(C(=O)NC(CCC(=O)O)C(=O)O)cc2)cnc2nc(N)nc(N)c12` (stereo not given) was tested, and the pIC50 (Thymidylate synthase) was 5.54, the k (L1210 [7]) was 0.5 min⁻¹ and the pIC50 (L1210 [2]) was 7.63. The Km (L1210 [3]) was 1.25 µM, the pIC50 (Dihydrofolate reductase [4]) was 7.64 and the pKi (Dihydrofolate reductase [5]) was 10.55.

Work on `Cc1c(CCc2ccc(C(=O)NC(CCC(=O)O)C(=O)O)cc2)cnc2nc(N)nc(O)c12` (stereo not given) yielded a pIC50 (L1210 [2]) of 4.44 and a Km (L1210 [3]) of 18.8 µM.

For `CN(Cc1cnc2nc(N)nc(N)c2n1)c1ccc(C(=O)N[C@@H](CCC(=O)O)C(=O)O)cc1` [METHOTREXATE], the k (L1210 [7]) was 0.22 min⁻¹, the pIC50 (L1210 [2]) was 8.68 and the Km (L1210 [3]) was 3.95 µM.

For `Cc1c(CCc2ccc(C(=O)NC(CCC(=O)O)C(=O)O)cc2)cnc2nc(N)[nH]c(=O)c12` (stereo not given), the pIC50 (Thymidylate synthase) was 4.36, the pIC50 [1] was < 4.70 and the pIC50 (Dihydrofolate reductase [4]) was 4.80. The pKi (Dihydrofolate reductase [5]) was < 9.00 and the pIC50 [6] was < 4.70.
